# According to patent US9138438B2, “Method for protecting a retinal neuronal cell” (ASAHI GLASS COMPANY, LIMITED, priority 2005, dated 2015):
# Tested on: rat fetal retinal neuronal cells
# Assay: Glutamate-induced retinal neuronal cell death, trypan blue survival rate
# Assay type: cell-based
# Settings: test compound 0.1 nM to 100 nM; 24 hours pre-incubation, 1 mM glutamate 10 minutes, then 1 hour with test compound; survival rate by trypan blue
# Description: In order to find a new pharmaceutical application of a prostaglandin F2α derivative, by using rat fetal retinal neuronal cells, an effect of a prostaglandin F2α derivative on protecting retinal neuronal cells against glutamate-induced retinal neuronal cell death was evaluated and examined.
# Incidentally, as the prostaglandin F2α derivative which is a test compound, 16-phenoxy-15-deoxy-15,15-difluoro-17,18,19,20-tetranor-prostaglandin F2α was used.
# A pregnant SD rat was subjected to laparotomy under systemic anesthesia, and the uterus was transferred to a dish containing Hanks's balanced salt solution (HBSS). A rat fetus was isolated from the uterus, and the eyeballs of the rat fetus were taken out. The retina was isolated from the eyeballs under a stereoscopic microscope and cut into pieces with a surgical knife. […] After the cell number was counted with a hemocytometer, an MEM medium containing 10% FBS was added thereto, whereby a cell suspension with a cell density of 0.8×10^6 cells/mL was obtained. […]
# At day 10 of culture, the plastic discs in which cells were inoculated and cultured were transferred to the HS-containing MEM medium containing the test compound and incubated for 24 hours (37° C., 5% CO2). […] After the cells were washed with a physiological saline solution, stained cells and unstained cells were counted under an inverted microscope. […]
smiles,measurement,value
"O=C(O)CCC/C=C\C[C@@H]1[C@@H](/C=C/C(F)(F)COc2ccccc2)[C@H](O)C[C@@H]1O [test compound, 16-phenoxy-15-deoxy-15,15-difluoro-17,18,19,20-tetranor-prostaglandin F2α]",glutamate-induced retinal neuronal cell death,inhibited in a concentration-dependent manner
